Key:
[1] = Previous studies: permeation through intact skin (non-MN treated, 100% ddH2O donor solution); assay type: in vitro ADME
Method: Likewise, short lag times were observed throughout the study for the ALL00179-treated skin. […] In this study, the total amount of CBD delivered from a 25 mg ALL00179-containing donor solution was 0.2±0.1 mg total CBD equivalents in the skin and 1.0±0.2 mg total CBD equivalents in the receiver solution after 48 hr. This accounts for approximately 4.8% of the total ALL00179 in the donor solution.

[2] = Chemical stability of ALL00179 in 100% ddH2O donor solution; assay type: physicochemical; conditions: for purity level after 72 hr: ALL00179 after 72 hr in ddH7O at RT; for initial purity (composition of ALL00179 sample): ALL00179 for 100% ddH2O donor solution
Method: ALL00179 was placed in 100% ddH2O donor solution to check chemical stability. The initial purity of ALL00179 was 94.7% ALL00179, 5.3% ALL00180, and 0% CBD. After 72 hr in ddH7O at RT, the purity level was determined to be 86.8% ALL00179, 13.2% ALL00180 and 0% CBD.

[3] = Permeation from an optimized gel system of cannabidiol through intact dermatomed human skin; assay type: in vitro ADME; conditions: optimized gel system of cannabidiol (2.5% w/w), dosed every 12 hr
Text: As a comparison, permeation from an optimized gel system of cannabidiol (2.5% w/w) through intact dermatomed human skin, dosed every 12 hr, gave a flux of 5.2 nmol/cm^2/h. The total CBD flux from ALLL00179 after MN treatment of full thickness Yucatan pig skin was 63.2±11.4 nmol/cm^2/h, resulting in a 12.2 fold enhancement of flux.

[4] = In vitro diffusion study through microneedle-treated full thickness Yucatan pig skin (flow-through diffusion cell); assay type: in vitro ADME; conditions: ALL00179 100% ddH2O donor solution, end of 48 h diffusion study
Text: The purpose of the diffusion study was to determine whether microneedle (MN) treated skin would allow the rapid permeation of a water-soluble prodrug of CBD (ALL00179) compared to CBD.
Briefly, full thickness Yucatan pig (YP) skin was used to perform the microneedle studies. The average thickness of the YP skin was approximately 1.0±0.1 mm. A PermeGear flow-through (In-Line, Hellertown, Pa.) diffusion cell system was used for the skin permeation studies. One hundred microneedle insertions were made into the skin before mounting in the flow-through diffusion cell by treating the skin 20 times with an array containing 5 microneedles. Each cell was charged with 250 μl of either 318 mM CBD (n=4) or ALL00179 (n=5) and occluded with rubber stoppers. Ten percent ethanol in water was used as a receiver solution. Samples were collected at six-hour intervals for a total of 48 hours. (See FIG. 1 for the permeation profile.)

[5] = assay type: in vitro ADME; conditions: ALL00179 added to human plasma; for Percent Prodrug and CBD at time (min) 0*: 0 min (approximately 1 minute of mixing and withdrawal); for Percent Prodrug and CBD at time (min) 5: 5 min; for Percent Prodrug and CBD at time (min) 10: 10 min; for Percent Prodrug and CBD at time (min) 20: 20 min; for Percent Prodrug and CBD at time (min) 30: 30 min; for Percent Prodrug and CBD at time (min) 60: 60 min; for Percent Prodrug and CBD at time (min) 120: 120 min
Method: Stability of the prodrug in human plasma was performed to monitor the conversion of ALL00179 to the monosubstituted form, ALL00180, and CBD. The molecular structure of ALL00180 and CBD are shown below: […]

[6] = cited from earlier work
[7] = used in conjunction with microneedles

| SMILES | drug detected in the skin [1] | flux through intact skin [1] | purity level after 72 hr [2] [%] | initial purity (composition of ALL00179 sample) [2] [%] | flux [3] [nmol/cm^2/h] | composition of the donor solutions at the end of the study [4] [%] | Percent Prodrug and CBD at time (min) 0* [5] [%] | Percent Prodrug and CBD at time (min) 5 [5] [%] | Percent Prodrug and CBD at time (min) 10 [5] [%] | Percent Prodrug and CBD at time (min) 20 [5] [%] | Percent Prodrug and CBD at time (min) 30 [5] [%] | Percent Prodrug and CBD at time (min) 60 [5] [%] | Percent Prodrug and CBD at time (min) 120 [5] [%] | naltrexone levels ([6]; 16% naltrexone hydrochloride gel, 6 healthy human volunteers, microneedle pretreatment) [ng/mL] | duration of steady state naltrexone concentrations [6, 7] [h] | time to steady state naltrexone concentrations [6, 7] |
| --- | --- | --- | --- | --- | --- | --- | --- | --- | --- | --- | --- | --- | --- | --- | --- | --- |
| C=C(C)[C@@H]1CCC(C)=C[C@H]1c1c(O)cc(CCCCC)cc1O [Cannabidiol] | none | no flux | 0 | 0 | 5.2 | 0 | 4.7 | 30.2 | 55.1 | 77.1 | 89.4 | 97.6 | 100 | – | – | – |
| C=C(C)[C@@H]1CCC(C)=C[C@H]1c1c(O)cc(CCCCC)cc1OC(=O)C[N+](C)(C)C [ALL00180] | – | – | 13.2 | 5.3 | – | 15.7±2.6 | 86.1 | 66.8 | 44.9 | 22.9 | 10.6 | 2.4 | 0.0 | – | – | – |
| O=C1CC[C@@]2(O)[C@H]3Cc4ccc(O)c5c4[C@@]2(CCN3CC2CC2)[C@H]1O5 [naltrexone] | – | – | – | – | – | – | – | – | – | – | – | – | – | 2.5 ± 1.1 | 48 | within two hours |
| C=C(C)[C@@H]1CCC(C)=C[C@H]1c1c(OC(=O)C[N+](C)(C)C)cc(CCCCC)cc1OC(=O)C[N+](C)(C)C.[Cl-].[Cl-] [ALL00179] | – | no flux | 86.8 | 94.7 | – | 84.3±2.6 | 9.2 | 3.0 | 0.0 | 0.0 | 0.0 | 0.0 | 0.0 | – | – | – |

From patent publication USRE47885E1, “Use of cannabidiol prodrugs in pharmaceutical compositions” (Zynerba Pharmaceuticals, Inc., priority 2009, dated 2020)
